Patent publication US20260070895A1, “CRYSTALLINE FORMS” (QUIMATRYX, S.L., priority 2022, published 2026)

How the values were obtained:
HDAC 6 = target: T1, HDAC 6 (Homo sapiens, UniProt Q9UBN7); settings: cited from earlier work
T1 sequence (Q9UBN7 1-1215): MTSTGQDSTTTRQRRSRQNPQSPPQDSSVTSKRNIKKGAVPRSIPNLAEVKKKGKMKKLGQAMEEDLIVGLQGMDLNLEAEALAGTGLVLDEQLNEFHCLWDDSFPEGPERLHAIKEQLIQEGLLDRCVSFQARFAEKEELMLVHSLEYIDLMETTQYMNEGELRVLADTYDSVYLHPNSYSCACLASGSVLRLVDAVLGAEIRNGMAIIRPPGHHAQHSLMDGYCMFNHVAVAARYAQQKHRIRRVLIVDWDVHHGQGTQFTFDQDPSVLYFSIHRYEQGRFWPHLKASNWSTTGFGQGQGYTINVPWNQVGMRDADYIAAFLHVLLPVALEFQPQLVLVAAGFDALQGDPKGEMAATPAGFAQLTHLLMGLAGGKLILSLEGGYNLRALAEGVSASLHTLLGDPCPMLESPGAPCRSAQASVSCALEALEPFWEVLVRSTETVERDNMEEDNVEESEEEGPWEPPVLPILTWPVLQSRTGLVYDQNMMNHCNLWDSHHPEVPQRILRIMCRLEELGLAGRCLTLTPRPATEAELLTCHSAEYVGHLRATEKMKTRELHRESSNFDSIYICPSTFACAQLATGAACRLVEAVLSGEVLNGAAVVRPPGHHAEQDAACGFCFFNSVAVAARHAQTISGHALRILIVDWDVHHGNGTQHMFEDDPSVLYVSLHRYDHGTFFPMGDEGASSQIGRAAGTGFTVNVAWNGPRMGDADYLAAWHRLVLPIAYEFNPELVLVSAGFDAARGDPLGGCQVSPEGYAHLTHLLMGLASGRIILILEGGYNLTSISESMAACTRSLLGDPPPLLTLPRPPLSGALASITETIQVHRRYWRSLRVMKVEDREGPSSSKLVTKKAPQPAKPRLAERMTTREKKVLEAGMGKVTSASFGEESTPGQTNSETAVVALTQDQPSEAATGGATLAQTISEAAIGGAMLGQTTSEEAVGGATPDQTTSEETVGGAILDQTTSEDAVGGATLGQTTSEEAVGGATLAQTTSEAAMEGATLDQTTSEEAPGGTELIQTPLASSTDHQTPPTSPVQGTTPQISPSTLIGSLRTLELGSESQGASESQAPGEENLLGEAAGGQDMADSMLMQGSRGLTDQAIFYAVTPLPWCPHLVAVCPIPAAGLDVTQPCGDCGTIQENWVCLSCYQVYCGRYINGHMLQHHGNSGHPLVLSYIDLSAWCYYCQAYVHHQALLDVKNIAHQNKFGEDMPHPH

[1] = Solubility and stability of QTX125 in aqueous solution (background); type: physicochemical
[2] = Genotoxicity (clastogenicity, aneugenicity); settings: unlike other histone deacetylase inhibitors
[3] = tested on: mantle cell lymphoma, lung cancer and pancreatic cancer xenograft; settings: lung cancer and pancreatic cancer xenograft murine models; cited from earlier work
[4] = tested on: multiple sclerosis mice models; settings: two different multiple sclerosis mice models; cited from earlier work
[5] = hydroxamic acids such as QTX125; cited from earlier work
[6] = Pharmacokinetic properties; type: in vivo; settings: compared with other histone deacetylase inhibitors

O=C(NO)c1ccc(CNC(=O)c2[nH]c(-c3ccc(O)cc3)cc2-c2ccoc2)cc1 [QTX125, 3-(3-furyl)-N-{4-[(hydroxyamino)carbonyl]benzyl}-5-(4-hydroxyphenyl)-1H-pyrrole-2-carboxamide]
HDAC 6 inhibition (in words) (HDAC 6): highly selective and highly potent
physical and chemical stability in solution [1]: physical and chemical instability
genotoxicity, in particular clastogenicity or aneugenicity [2]: no evidence of genotoxicity
antitumoral efficacy [3]: high antitumoral efficacy
efficacy in multiple sclerosis models [4]: high efficacy
solubility in water [5]: very low solubility
pharmacokinetic properties: half-lives and distribution volumes [6]: higher half-lives and distribution volumes
